Drawing on the NIST ThermoML archive (doi:10.1016/j.tca.2016.11.008), this text covers mass density for 2 compounds.

This data set is described as follows: xn = mol fraction of the nth substance listed. The following applies: 101.3 kPa, Liquid, Vibrating tube method.

± gives the expanded uncertainty stated by the source.

`C[N+](C)(C)CCO.[Cl-]` [choline chloride] + O=C[C@H](O)[C@@H](O)[C@H](O)[C@H](O)CO: the mass density is 1239.7 ± 3.4 kg/m3 (303.15 K, x1 = 0.667); 1234.6 ± 3.3 kg/m3 (313.15 K, x1 = 0.667); 1229.4 ± 3.3 kg/m3 (323.15 K, x1 = 0.667); 1224.3 ± 3.3 kg/m3 (333.15 K, x1 = 0.667); 1219.2 ± 3.3 kg/m3 (343.15 K, x1 = 0.667); 1214 ± 3.3 kg/m3 (353.15 K, x1 = 0.667).
With `OCCOCCOCCO` [triethylene glycol] + C[N+](C)(C)CCO.[Cl-], the mass density is, setting by setting: (303.15 K, x2 = 0.333) 1125.4 ± 3.1 kg/m3; (313.15 K, x2 = 0.333) 1118.9 ± 3.1 kg/m3; (323.15 K, x2 = 0.333) 1112.5 ± 3 kg/m3; (333.15 K, x2 = 0.333) 1106.2 ± 3 kg/m3; (343.15 K, x2 = 0.333) 1099.8 ± 3 kg/m3; (353.15 K, x2 = 0.333) 1093.5 ± 3 kg/m3.

As usually defined, the mass density is the mass of a sample divided by its volume.
